From ChEMBL document CHEMBL5291721, “A preclinical secondary pharmacology resource illuminates target-adverse drug reaction associations of marketed drugs” (Nat Commun, 2023)

Legend:
[1] = target: T1, Progesterone receptor (Homo sapiens, UniProt P06401)
T1 sequence (P06401 whole entry): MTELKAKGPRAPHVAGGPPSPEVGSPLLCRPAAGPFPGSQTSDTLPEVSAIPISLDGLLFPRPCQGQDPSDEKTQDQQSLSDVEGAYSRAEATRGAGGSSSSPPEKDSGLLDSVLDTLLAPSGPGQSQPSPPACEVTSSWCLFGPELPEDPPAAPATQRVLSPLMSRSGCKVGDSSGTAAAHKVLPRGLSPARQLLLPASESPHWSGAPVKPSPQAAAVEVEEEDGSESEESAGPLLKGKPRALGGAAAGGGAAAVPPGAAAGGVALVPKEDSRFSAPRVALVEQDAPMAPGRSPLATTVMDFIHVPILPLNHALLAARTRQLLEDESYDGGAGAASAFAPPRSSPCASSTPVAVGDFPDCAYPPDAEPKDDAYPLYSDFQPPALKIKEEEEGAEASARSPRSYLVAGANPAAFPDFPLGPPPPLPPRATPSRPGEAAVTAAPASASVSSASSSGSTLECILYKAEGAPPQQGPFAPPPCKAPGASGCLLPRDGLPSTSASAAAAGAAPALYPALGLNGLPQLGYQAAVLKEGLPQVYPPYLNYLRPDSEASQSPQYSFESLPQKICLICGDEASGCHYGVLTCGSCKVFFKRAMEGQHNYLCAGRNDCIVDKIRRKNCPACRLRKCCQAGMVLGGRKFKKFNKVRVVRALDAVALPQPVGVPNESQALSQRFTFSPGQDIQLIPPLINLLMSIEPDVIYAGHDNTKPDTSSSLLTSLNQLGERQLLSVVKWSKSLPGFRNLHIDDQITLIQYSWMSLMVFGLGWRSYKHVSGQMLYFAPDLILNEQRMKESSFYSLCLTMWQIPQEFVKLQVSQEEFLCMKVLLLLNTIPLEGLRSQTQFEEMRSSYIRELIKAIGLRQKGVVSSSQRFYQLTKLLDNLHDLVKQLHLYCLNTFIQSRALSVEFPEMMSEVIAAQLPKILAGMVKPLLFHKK

[2] = target: T2, Alpha-2A adrenergic receptor (Homo sapiens, UniProt P08913)
T2 sequence (P08913 whole entry): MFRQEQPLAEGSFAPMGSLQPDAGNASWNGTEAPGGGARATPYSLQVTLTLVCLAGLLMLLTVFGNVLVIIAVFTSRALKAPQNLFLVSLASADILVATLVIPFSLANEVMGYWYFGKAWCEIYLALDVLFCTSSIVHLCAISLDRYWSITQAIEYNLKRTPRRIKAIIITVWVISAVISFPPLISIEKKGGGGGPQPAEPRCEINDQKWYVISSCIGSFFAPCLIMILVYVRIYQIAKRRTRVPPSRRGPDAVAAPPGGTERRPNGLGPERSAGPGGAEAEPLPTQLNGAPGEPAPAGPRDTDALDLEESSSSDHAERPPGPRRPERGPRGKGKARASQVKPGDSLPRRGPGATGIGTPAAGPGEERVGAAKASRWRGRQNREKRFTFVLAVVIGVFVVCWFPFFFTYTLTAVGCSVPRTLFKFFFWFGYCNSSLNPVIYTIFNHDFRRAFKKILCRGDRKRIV

[3] = target: Cannabinoid receptor 1 (Homo sapiens, UniProt P21554); format: functional
[4] = target: T3, D(4) dopamine receptor (Homo sapiens, UniProt P21917)
T3 sequence (P21917 whole entry): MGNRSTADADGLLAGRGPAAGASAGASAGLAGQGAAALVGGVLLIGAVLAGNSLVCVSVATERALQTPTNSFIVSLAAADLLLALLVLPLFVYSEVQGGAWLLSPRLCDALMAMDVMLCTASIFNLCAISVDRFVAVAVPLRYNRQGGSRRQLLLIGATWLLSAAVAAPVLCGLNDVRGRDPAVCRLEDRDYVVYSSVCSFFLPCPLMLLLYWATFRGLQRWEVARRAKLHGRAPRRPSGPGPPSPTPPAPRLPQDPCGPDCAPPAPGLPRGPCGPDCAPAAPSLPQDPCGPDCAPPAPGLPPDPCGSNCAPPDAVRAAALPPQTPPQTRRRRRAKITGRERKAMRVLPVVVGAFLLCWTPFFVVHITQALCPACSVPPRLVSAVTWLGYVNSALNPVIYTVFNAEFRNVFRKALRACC

[5] = target: Estrogen receptor beta (Homo sapiens, UniProt Q92731)
[6] = target: Gamma-aminobutyric acid type B receptor subunit 1 (Homo sapiens, UniProt Q9UBS5)
[7] = target: 5-hydroxytryptamine receptor 6 (Homo sapiens, UniProt P50406)
[8] = target: 5-hydroxytryptamine receptor 7 (Homo sapiens, UniProt P34969)
[9] = target: Substance-P receptor (Homo sapiens, UniProt P25103)
[10] = target: T4, Alpha-1A adrenergic receptor (Homo sapiens, UniProt P35348)
T4 sequence (P35348 whole entry): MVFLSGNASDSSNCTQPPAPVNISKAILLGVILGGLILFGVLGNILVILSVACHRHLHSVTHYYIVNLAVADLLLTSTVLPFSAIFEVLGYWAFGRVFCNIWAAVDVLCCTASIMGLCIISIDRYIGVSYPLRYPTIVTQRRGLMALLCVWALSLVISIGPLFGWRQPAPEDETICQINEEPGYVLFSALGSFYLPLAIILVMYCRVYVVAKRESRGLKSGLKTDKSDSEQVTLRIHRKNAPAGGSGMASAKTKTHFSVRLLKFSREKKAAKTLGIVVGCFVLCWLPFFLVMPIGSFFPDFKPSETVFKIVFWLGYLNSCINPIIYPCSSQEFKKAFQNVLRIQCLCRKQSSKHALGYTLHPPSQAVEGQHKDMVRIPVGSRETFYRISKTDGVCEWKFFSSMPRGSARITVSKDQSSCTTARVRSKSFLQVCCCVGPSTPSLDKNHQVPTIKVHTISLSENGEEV

[11] = target: Beta-1 adrenergic receptor (Homo sapiens, UniProt P08588); format: functional, cell-based
[12] = target: Histamine H1 receptor (Homo sapiens, UniProt P35367); format: functional, cell-based
Note: assay procedure not described here.

Sequence of Estrogen receptor beta (Q92731 whole entry): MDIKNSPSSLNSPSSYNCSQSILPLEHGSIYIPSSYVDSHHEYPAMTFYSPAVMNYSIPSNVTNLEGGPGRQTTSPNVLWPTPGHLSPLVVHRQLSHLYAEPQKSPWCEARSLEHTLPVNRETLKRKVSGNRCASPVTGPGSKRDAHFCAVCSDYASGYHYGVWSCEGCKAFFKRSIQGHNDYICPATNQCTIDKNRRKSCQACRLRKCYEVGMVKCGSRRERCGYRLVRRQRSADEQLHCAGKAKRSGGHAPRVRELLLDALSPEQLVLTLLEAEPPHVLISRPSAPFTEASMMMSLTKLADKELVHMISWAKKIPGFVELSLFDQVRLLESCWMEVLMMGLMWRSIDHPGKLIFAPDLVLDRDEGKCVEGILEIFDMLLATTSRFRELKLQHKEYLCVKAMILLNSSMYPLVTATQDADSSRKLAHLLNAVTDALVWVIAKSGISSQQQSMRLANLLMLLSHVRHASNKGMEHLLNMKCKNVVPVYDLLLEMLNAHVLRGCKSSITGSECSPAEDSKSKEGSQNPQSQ
Sequence of Cannabinoid receptor 1 (P21554 whole entry): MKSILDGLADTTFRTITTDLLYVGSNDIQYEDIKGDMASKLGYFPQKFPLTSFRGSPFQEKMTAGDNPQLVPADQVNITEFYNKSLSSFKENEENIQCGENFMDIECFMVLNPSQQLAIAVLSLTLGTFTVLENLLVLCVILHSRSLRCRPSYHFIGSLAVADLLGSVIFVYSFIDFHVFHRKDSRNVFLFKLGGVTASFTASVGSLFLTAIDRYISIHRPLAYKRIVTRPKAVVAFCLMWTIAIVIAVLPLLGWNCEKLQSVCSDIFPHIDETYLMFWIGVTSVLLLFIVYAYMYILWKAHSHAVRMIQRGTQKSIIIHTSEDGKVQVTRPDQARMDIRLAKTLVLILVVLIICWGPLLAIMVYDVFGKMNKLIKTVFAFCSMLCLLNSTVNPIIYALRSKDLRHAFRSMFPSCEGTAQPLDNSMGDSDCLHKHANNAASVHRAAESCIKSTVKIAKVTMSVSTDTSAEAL
Sequence of Beta-1 adrenergic receptor (P08588 whole entry): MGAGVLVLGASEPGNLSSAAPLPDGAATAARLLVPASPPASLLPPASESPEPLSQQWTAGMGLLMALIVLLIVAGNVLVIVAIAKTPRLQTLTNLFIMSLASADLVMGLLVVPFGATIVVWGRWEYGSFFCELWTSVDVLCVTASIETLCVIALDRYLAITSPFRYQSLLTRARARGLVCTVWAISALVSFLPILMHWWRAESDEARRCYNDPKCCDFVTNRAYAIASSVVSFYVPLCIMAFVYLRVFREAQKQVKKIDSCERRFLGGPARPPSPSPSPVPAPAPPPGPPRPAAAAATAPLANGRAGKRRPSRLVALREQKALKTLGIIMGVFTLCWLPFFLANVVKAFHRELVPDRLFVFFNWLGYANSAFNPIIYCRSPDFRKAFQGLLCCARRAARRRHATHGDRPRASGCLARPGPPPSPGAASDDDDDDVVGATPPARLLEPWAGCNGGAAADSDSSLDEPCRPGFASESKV
Sequence of 5-hydroxytryptamine receptor 7 (P34969 whole entry): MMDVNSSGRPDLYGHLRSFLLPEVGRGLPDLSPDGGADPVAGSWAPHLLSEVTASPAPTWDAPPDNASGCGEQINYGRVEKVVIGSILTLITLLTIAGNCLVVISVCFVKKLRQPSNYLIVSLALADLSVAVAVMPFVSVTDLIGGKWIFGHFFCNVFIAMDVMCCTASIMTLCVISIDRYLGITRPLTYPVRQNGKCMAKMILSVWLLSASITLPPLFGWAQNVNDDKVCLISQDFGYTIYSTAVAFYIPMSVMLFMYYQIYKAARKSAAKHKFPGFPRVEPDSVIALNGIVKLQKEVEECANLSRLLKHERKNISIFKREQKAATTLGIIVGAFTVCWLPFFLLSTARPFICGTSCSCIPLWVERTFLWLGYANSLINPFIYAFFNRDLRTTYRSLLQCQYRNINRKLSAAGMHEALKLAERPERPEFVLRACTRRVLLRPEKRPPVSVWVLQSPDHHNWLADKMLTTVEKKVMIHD
Sequence of Substance-P receptor (P25103 whole entry): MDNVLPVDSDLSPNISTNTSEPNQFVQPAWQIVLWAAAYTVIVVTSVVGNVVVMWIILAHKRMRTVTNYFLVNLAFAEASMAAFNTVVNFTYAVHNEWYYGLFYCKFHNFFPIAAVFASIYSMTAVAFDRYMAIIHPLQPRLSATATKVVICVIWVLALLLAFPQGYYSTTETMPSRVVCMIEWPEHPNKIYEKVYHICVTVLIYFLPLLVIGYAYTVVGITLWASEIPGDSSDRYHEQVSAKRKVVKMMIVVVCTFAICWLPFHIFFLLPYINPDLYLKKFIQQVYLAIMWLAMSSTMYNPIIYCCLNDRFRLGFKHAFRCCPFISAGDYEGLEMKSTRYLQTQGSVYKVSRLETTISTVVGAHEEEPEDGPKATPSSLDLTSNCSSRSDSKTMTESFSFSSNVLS
Sequence of Gamma-aminobutyric acid type B receptor subunit 1 (Q9UBS5 whole entry): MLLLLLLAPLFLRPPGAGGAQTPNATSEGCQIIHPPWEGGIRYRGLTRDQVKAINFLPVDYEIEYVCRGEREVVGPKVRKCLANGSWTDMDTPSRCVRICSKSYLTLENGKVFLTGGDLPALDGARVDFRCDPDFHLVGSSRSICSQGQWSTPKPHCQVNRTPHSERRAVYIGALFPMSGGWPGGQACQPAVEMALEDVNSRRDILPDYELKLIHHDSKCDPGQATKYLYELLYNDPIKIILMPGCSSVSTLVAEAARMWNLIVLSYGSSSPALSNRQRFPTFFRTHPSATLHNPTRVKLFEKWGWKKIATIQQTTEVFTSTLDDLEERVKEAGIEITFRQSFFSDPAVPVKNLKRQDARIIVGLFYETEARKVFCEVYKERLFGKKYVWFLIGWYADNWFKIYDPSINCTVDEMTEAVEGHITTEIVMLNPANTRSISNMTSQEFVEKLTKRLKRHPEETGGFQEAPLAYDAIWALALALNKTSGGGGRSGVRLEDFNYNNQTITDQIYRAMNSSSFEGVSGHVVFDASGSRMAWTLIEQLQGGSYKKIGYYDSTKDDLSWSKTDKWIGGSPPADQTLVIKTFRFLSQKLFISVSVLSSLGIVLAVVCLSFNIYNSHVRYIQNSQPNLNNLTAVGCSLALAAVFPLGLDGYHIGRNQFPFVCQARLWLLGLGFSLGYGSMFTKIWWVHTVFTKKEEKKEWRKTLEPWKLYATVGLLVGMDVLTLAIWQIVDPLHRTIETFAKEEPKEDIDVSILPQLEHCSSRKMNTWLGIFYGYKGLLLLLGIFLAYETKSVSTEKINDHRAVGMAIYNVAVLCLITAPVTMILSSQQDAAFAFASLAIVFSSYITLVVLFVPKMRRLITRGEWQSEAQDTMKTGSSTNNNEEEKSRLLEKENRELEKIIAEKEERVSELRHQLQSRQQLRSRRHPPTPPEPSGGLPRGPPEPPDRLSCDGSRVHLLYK
Sequence of 5-hydroxytryptamine receptor 6 (P50406 whole entry): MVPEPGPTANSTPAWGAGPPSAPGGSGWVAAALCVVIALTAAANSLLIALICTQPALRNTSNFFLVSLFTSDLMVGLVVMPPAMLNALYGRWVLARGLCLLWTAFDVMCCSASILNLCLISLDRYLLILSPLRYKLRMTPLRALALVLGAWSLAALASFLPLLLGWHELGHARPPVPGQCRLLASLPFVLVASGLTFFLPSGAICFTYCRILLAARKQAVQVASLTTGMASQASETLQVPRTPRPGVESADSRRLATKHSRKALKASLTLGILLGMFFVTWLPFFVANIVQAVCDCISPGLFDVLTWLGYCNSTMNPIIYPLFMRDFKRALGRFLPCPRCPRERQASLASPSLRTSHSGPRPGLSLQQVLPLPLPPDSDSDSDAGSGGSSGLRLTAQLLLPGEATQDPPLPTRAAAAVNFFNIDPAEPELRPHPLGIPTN
Sequence of Histamine H1 receptor (P35367 whole entry): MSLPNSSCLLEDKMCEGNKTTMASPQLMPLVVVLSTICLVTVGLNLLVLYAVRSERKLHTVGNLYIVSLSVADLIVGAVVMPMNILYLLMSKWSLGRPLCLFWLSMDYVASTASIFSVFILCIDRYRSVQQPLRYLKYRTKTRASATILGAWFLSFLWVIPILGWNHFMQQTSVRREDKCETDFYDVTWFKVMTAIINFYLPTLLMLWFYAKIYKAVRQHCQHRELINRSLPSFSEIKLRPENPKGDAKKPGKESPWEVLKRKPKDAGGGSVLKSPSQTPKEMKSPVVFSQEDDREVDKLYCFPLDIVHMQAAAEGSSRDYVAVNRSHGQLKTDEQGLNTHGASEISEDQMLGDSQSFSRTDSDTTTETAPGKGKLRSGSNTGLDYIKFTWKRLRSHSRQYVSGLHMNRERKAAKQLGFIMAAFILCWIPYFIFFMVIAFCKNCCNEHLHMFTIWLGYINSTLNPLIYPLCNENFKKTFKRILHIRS

Compound: C1COC(NC(C2CC2)C2CC2)=N1 [RILMENIDINE]
- AC50 [1]: > 30 µM
- AC50 [2]: 3.49 µM

Compound: O=C(O)CCCc1ccccc1 [PHENYLBUTANOIC ACID]
- AC50 [3]: > 10 µM
- AC50 [4]: > 10 µM
- AC50 [5]: > 30 µM
- AC50 [6]: > 10 µM
- AC50 [7]: > 10 µM
- AC50 [8]: > 10 µM
- AC50 [1]: > 30 µM
- AC50 [9]: > 10 µM
- AC50 [2]: > 10 µM
- AC50 [10]: > 10 µM

Compound: CN1CCc2cccc3c2[C@H]1Cc1ccc(O)c(O)c1-3 [APOMORPHINE]
- AC50 [5]: > 30 µM
- AC50 [1]: 26 µM
- AC50 [2]: 2.37 µM

Compound: CN1CC[C@]23CCCC[C@H]2[C@H]1Cc1ccc(O)cc13 [LEVORPHANOL]
- AC50 [2]: 19 µM

Compound: CCN(CC)CCOC(=O)c1ccc(N)cc1 [PROCAINE]
- AC50 [1]: > 30 µM
- AC50 [2]: > 10 µM

Compound: Cc1ccc(-c2nc3ccc(C)cn3c2CC(=O)N(C)C)cc1 [ZOLPIDEM]
- AC50 [3]: > 10 µM
- AC50 [4]: > 10 µM
- AC50 [6]: > 10 µM
- AC50 [7]: > 10 µM
- AC50 [8]: > 10 µM
- AC50 [1]: > 30 µM
- AC50 [9]: > 10 µM
- AC50 [2]: > 10 µM
- AC50 [10]: > 10 µM

Compound: CCC(C(=O)O)c1ccc(CC(C)C)cc1 (stereo not given) [BUTIBUFEN]
- AC50 [11]: > 30 µM

Compound: COc1c(C)c2c(c(O)c1C/C=C(\C)CCC(=O)OCCN1CCOCC1)C(=O)OC2 [MYCOPHENOLATE MOFETIL]
- AC50 [11]: > 30 µM

Compound: C1=Cc2cccc(OCC3CNCCO3)c2C1 (stereo not given) [INDELOXAZINE]
- AC50 [11]: > 30 µM

Compound: CN1CC(=O)N2[C@H](c3ccc4c(c3)OCO4)c3[nH]c4ccccc4c3C[C@@H]2C1=O
- AC50 [1]: > 30 µM

Compound: CC(Cc1ccccc1)NCCC(c1ccccc1)c1ccccc1 (stereo not given) [PRENYLAMINE]
- AC50 [1]: > 30 µM

Compound: C#C[C@]1(O)CC[C@H]2[C@@H]3CCC4=CCCC[C@@H]4[C@H]3CC[C@@]21C [LYNESTRENOL]
- AC50 [11]: > 30 µM

Compound: CCN1CCC[C@H]1CNC(=O)c1cc(S(N)(=O)=O)ccc1OC [LEVOSULPIRIDE]
- AC50 [1]: > 30 µM
- AC50 [2]: > 10 µM

Compound: CCCCCN(C)CCC(O)(P(=O)(O)O)P(=O)(O)O [IBANDRONIC ACID]
- AC50 [3]: > 10 µM
- AC50 [4]: > 10 µM
- AC50 [5]: > 30 µM
- AC50 [7]: > 10 µM
- AC50 [8]: > 10 µM
- AC50 [1]: > 30 µM
- AC50 [9]: > 10 µM
- AC50 [2]: > 10 µM
- AC50 [10]: > 10 µM

Compound: CC/C=C\C/C=C\C/C=C\CCCCCCCC(=O)O [LINOLENIC ACID]
- AC50 [12]: > 30 µM

Compound: CC(C)c1c(C(=O)Nc2ccccc2)c(-c2ccccc2)c(-c2ccc(F)cc2)n1CC[C@@H](O)C[C@@H](O)CC(=O)O [ATORVASTATIN]
- AC50 [6]: > 10 µM
- AC50 [1]: > 30 µM
- AC50 [2]: > 10 µM

Compound: COc1ccc(C(=O)N2CCN(c3ccc4c(c3)CCC(=O)N4)CC2)cc1OC [VESNARINONE]
- AC50 [12]: > 30 µM

Compound: O=C(O)Cc1cn(-c2ccccc2)nc1-c1ccc(Cl)cc1 [LONAZOLAC]
- AC50 [11]: > 30 µM
